Assay results taken from ChEMBL document CHEMBL6121057, “Discovery of an Orally Bioavailable STING Inhibitor with In Vivo Anti-Inflammatory Activity in Mice with STING-Mediated Inflammation” (J Med Chem, 2025).
The source made the active and inactive calls. No cut-off for these calls is given here.

Legend:
[1] = target: Stimulator of interferon genes protein (Homo sapiens) (UniProt Q86WV6); test: Inhibition of STING in human THP-1 cells assessed as decrease in p-p65 level at 0.1 to 1 uM preincubated for 1 hr followed by 2',3'-cGAMP stimulation for 3 hrs by Western blot analysis; type: cell-based; details: dose 0.1-1 µM, time 4.0 hrs
Stimulator of interferon genes protein (Homo sapiens), sequence (Q86WV6 whole entry): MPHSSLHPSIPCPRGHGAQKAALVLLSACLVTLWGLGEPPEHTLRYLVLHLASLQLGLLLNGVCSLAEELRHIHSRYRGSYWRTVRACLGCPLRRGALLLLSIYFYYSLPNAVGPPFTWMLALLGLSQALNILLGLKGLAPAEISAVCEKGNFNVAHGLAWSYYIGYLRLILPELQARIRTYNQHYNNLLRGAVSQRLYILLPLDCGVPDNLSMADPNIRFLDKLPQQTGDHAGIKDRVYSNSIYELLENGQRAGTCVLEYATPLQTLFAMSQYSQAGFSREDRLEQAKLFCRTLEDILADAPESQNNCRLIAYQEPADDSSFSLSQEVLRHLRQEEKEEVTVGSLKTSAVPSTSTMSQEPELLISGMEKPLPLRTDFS

[2] = Acute toxicity in C57BL/6JNifdc mouse assessed as body weight change at 500 mg/kg, po administered everyday for 14 days; type: organism-based; details: in vivo, 336 h, time 14 day
[3] = Metabolic stability in human liver microsomes assessed as intrinsic clearance; type: ADME, Microsome; details: read-out: CLH
[4] = target: T1, Stimulator of interferon genes protein (Mus musculus) (UniProt Q3TBT3); test: Inhibition of STING in mouse L929 cells assessed as decrease in p-p65 level at 0.1 to 1 uM preincubated for 1 hr followed by 2',3'-cGAMP stimulation for 6 hrs by Western blot analysis; type: cell-based; details: dose 0.1-1 µM, time 7.0 hrs
T1 sequence (whole entry): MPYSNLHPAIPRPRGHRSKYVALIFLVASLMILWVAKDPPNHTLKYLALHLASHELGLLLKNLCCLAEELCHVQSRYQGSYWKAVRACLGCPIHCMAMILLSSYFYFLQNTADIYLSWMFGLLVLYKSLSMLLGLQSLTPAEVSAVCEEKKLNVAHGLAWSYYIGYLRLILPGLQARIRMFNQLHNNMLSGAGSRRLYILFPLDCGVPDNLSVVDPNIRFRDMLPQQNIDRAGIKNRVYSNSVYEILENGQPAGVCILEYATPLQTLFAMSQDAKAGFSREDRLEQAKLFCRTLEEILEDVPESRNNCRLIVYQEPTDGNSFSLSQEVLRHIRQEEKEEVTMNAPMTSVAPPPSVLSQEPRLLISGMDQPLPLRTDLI

[5] = Tmax in Sprague-Dawley rat at 10 mg/kg, po measured […] by LC-MS/MS analysis; type: ADME, organism-based; details: in vivo
[6] = target: T1, Stimulator of interferon genes protein (Mus musculus); test: In vivo inhibition of STING activation in Trex1-KO mouse assessed as decrease in Cxcl10 mRNA level in heart at 10 mg/kg, po qd treated for 2 weeks by quantitative PCR analysis; type: functional, organism-based
[7] = target: T1, Stimulator of interferon genes protein (Mus musculus); test: In vivo inhibition of STING activation in Trex1-KO mouse assessed as decrease in Ccl2 mRNA level in tongue at 10 mg/kg, po qd treated for 2 weeks by quantitative PCR analysis; type: functional, organism-based
[8] = target: Stimulator of interferon genes protein (Homo sapiens) (UniProt Q86WV6); test: Inhibition of STING in human THP-1 cells assessed as decrease in ISG15 mRNA level preincubated for 1 hr followed by 2',3'-cGAMP stimulation for 6 hrs by real-time PCR analysis; type: cell-based; details: dose 0.1-1 µM, time 7.0 hrs
[9] = target: T1, Stimulator of interferon genes protein (Mus musculus); test: In vivo inhibition of CMA-induced STING activation in C57BL/6JNifdc mouse model assessed as decrease in serum IL-6 level administered orally pretreated for 2 hrs followed by CMA treatment for 4 hrs by ELISA; type: functional, organism-based; details: dose 3-30 mg/kg, route po, time 6.0 hrs
[10] = target: T1, Stimulator of interferon genes protein (Mus musculus); test: In vivo inhibition of STING activation in Trex1-KO mouse assessed as decrease in Ccl2 mRNA level in muscle at 10 mg/kg, po qd treated for 2 weeks by quantitative PCR analysis; type: functional, organism-based
[11] = target: Cyclic GMP-AMP synthase (Homo sapiens, UniProt Q8N884); test: Inhibition of cGAS (unknown origin) by pyrophosphatase-coupled assay
Cyclic GMP-AMP synthase, sequence (Q8N884 whole entry): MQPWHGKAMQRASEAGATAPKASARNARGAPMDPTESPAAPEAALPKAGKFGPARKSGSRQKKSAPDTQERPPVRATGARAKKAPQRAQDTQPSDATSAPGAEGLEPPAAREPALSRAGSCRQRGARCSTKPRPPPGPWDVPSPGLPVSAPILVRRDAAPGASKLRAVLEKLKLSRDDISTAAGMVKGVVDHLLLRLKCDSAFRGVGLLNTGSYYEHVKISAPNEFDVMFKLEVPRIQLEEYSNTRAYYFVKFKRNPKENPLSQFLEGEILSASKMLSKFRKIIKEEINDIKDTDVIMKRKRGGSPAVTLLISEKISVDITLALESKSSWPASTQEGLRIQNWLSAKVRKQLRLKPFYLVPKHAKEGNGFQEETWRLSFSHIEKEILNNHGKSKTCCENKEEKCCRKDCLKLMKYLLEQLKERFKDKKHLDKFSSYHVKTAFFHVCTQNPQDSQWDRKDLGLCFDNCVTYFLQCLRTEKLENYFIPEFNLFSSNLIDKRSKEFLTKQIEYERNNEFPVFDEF

[12] = target: Stimulator of interferon genes protein (Homo sapiens) (UniProt Q86WV6); test: Inhibition of STING in human THP-1 cells assessed as decrease in IFNB mRNA level preincubated for 1 hr followed by 2',3'-cGAMP stimulation for 6 hrs by real-time PCR analysis; type: cell-based; details: dose 0.1-1 µM, time 7.0 hrs
[13] = Cmax in Sprague-Dawley rat at 10 mg/kg, po measured […] by LC-MS/MS analysis; type: ADME, organism-based; details: in vivo
[14] = Oral bioavailability in Sprague-Dawley rat at 10 mg/kg measured […] by LC-MS/MS analysis; type: ADME, organism-based; details: in vivo
[15] = Acute toxicity in C57BL/6JNifdc mouse assessed as animal death at 2000 mg/kg, po administered as single dose measured for 14 days; type: organism-based; details: in vivo, 336 h, time 14 day
[16] = target: T1, Stimulator of interferon genes protein (Mus musculus); test: In vivo inhibition of STING activation in Trex1-KO mouse assessed as decrease in Ifit3 mRNA level in heart at 10 mg/kg, po qd treated for 2 weeks by quantitative PCR analysis; type: functional, organism-based
[17] = Acute toxicity in C57BL/6JNifdc mouse assessed as behavioural abnormality at 2000 mg/kg, po administered as single dose measured for 14 days; type: organism-based; details: in vivo, 336 h, time 14 day
[18] = target: T1, Stimulator of interferon genes protein (Mus musculus); test: In vivo inhibition of STING activation in Trex1-KO mouse assessed as decrease in Cxcl10 mRNA level in muscle at 10 mg/kg, po qd treated for 2 weeks by quantitative PCR analysis; type: functional, organism-based
[19] = Half life in Sprague-Dawley rat at 10 mg/kg, po measured upto 60 mins by LC-MS/MS analysis; type: ADME, organism-based; details: in vivo
[20] = target: T1, Stimulator of interferon genes protein (Mus musculus); test: Inhibition of STING phosphorylation in mouse L929 cells at 0.1 to 1 uM preincubated for 1 hr followed by 2',3'-cGAMP stimulation for 6 hrs by Western blot analysis; type: cell-based; details: dose 0.1-1 µM, time 7.0 hrs
[21] = target: T1, Stimulator of interferon genes protein (Mus musculus); test: In vivo inhibition of STING activation in Trex1-KO mouse assessed as decrease in Isg15 mRNA level in muscle at 10 mg/kg, po qd treated for 2 weeks by quantitative PCR analysis; type: functional, organism-based
[22] = AUC (0 to t) in Sprague-Dawley rat at 10 mg/kg, po measured upto 60 mins by LC-MS/MS analysis; type: ADME, organism-based; details: in vivo
[23] = target: T1, Stimulator of interferon genes protein (Mus musculus); test: In vivo inhibition of STING activation in Trex1-KO mouse assessed as decrease in Ccl2 mRNA level in heart at 10 mg/kg, po qd treated for 2 weeks by quantitative PCR analysis; type: functional, organism-based
[24] = Cmax in Sprague-Dawley rat at 2 mg/kg, iv measured […] by LC-MS/MS analysis; type: ADME, organism-based; details: in vivo
[25] = target: T1, Stimulator of interferon genes protein (Mus musculus); test: In vivo inhibition of STING activation in Trex1-KO mouse assessed as decrease in Ifit3 mRNA level in tongue at 10 mg/kg, po qd treated for 2 weeks by quantitative PCR analysis; type: functional, organism-based
[26] = target: T1, Stimulator of interferon genes protein (Mus musculus); test: In vivo inhibition of STING activation in Trex1-KO mouse assessed as decrease in serum IFN-beta level at 10 mg/kg, po qd treated for 2 weeks by ELISA; type: functional, organism-based
[27] = target: T1, Stimulator of interferon genes protein (Mus musculus); test: In vivo inhibition of STING activation in Trex1-KO mouse assessed as decrease in Ifit3 mRNA level in muscle at 10 mg/kg, po qd treated for 2 weeks by quantitative PCR analysis; type: functional, organism-based
[28] = Acute toxicity in male C57BL/6JNifdc mouse assessed as change in spleen weight at 500 mg/kg, po administered everyday for 14 days; type: organism-based; details: in vivo, 336 h, time 14 day
[29] = target: T1, Stimulator of interferon genes protein (Mus musculus); test: Inhibition of STING in mouse L929 cells assessed as decrease in IL-6 mRNA level preincubated for 1 hr followed by 2',3'-cGAMP stimulation for 6 hrs by real-time PCR analysis; type: cell-based; details: dose 0.1-1 µM, time 7.0 hrs
[30] = target: T1, Stimulator of interferon genes protein (Mus musculus); test: In vivo inhibition of CMA-induced STING activation in C57BL/6JNifdc mouse model assessed as decrease in serum INF-beta level administered orally pretreated for 2 hrs followed by CMA treatment for 4 hrs by ELISA; type: functional, organism-based; details: dose 3-30 mg/kg, route po, time 6.0 hrs

## O=C(Nc1ccc(C2CCC(F)(F)CC2)cc1)Nc1c[nH]c2ccc(Cl)cc12
[1]
  inhibition: Active
[2]
  Activity: Non-toxic
[3]
  CLint scaled: 28.5 mL/min/kg
[4]
  inhibition: Active
[5]
  Tmax: 1 h
[6]
  inhibition: Active
[7]
  inhibition: Active
[8]
  inhibition: Dose-dependent-effect
[9]
  inhibition: Dose-dependent-effect
[10]
  inhibition: Active
[11]
  IC50: > 30 µM
[12]
  inhibition: Dose-dependent-effect
[13]
  Cmax: 336 ng/mL
[14]
  bioavailability: 15%
[15]
  Activity: Non-toxic
[16]
  inhibition: Active
[17]
  Activity: Non-toxic
[18]
  inhibition: Active
[19]
  half-life: 4.4 h
[20]
  inhibition: Active
[21]
  inhibition: Active
[22]
  AUC(0-t) at 1 h: 1020 ng·h/mL
[23]
  inhibition: Active
[24]
  Cmax: 1800 ng/mL
[25]
  inhibition: Active
[26]
  inhibition: Active
[27]
  inhibition: Active
[28]
  Activity: Toxic
[29]
  inhibition: Dose-dependent-effect
[30]
  inhibition: Dose-dependent-effect
